Here are results for nine compounds from patent US20250368633A1, “AZEPINE FUSED RING COMPOUND AS RIPK1 INHIBITOR AND USE THEREOF” (ARTIVILA BIOPHARMA, priority 2022, published 2025).

One assay concerns the target T1, RIPK1 kinase (Homo sapiens, UniProt Q13546).
T1 construct: purchased Promega VA7593
T1 sequence (Q13546 1-671): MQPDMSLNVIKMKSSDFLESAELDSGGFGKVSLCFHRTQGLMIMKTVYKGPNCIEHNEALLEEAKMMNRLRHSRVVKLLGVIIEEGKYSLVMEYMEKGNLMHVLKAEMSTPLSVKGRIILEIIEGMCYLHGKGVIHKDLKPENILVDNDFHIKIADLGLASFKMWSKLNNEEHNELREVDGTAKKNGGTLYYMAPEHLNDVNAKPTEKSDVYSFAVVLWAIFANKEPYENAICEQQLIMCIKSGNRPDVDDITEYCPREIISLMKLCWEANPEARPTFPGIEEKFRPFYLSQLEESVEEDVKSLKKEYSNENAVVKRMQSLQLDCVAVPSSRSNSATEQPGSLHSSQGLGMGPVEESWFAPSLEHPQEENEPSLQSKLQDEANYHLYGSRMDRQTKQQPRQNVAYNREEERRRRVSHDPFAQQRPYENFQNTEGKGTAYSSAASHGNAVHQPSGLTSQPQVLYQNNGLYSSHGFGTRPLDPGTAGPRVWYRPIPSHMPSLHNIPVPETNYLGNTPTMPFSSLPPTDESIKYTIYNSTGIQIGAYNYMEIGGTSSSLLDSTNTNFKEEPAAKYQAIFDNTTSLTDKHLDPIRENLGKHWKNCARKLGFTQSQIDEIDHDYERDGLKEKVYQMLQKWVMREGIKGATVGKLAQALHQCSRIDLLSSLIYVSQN
Description: In vitro RIPK1 kinase activity assay (ADP-Glo), inhibition by compounds at 1 μM. In kind it is biochemical. The note with it: compound 1 μM; ATP 10 μM; MBP substrate 100 μg/mL; read-out: RIPK1 kinase activity inhibition rate range. The protocol: RIPK1 kinase activity was assayed using the ADP-Glo assay and RIPK1 kinase reaction system (Promega, catalog number: VA7593). The RIPK1 kinase activity assay was performed according to the Promega kit manual.
The experimental method was briefly described as below. The concentration of RIPK1 kinase in the RIPK1 kinase reaction system was determined by kinase titration and S/B10. Compounds were diluted with 1× kinase buffer D (1% DMSO), and 1 μL of 100 μM compound DMSO stock solution was added to 19 μL 1× kinase buffer D. RIPK1 kinase was diluted with 1× kinase buffer D. 2.5×ATP/substrate was diluted with 1× kinase buffer D. The final concentration of ATP in the kinase reaction system was 10 μM, and the final concentration of MBP substrate was 100 μg/mL. 1 μL of diluted compound and 2 μL of diluted RIPK1 kinase were mixed, incubated at room temperature for 15 minutes, 2 μL of 2.5×ATP/substrate was added, mixed, and incubated at room temperature for 1 hour. 5 μL of ADP-Glo reagent was added to each well and incubated at room temperature for 1 hour. 10 μL of ADP detection reagent was added to each well and incubated at room temperature for another 0.5-1 hour. The chemiluminescent signal was read by a microplate reader and the inhibition rate of kinase activity was calculated.

Assay [1] relates to U937 cells. Description: Inhibition rate of compound (1 μM) on necroptosis of U937 cells (TSZ-induced, CellTiter-Glo). Format: cell-based. The note with it: TSZ (hTNF-α, SM-164, Z-VAD-FMK) 20 hours. The protocol: (§1) The biological activity of RIPK1 inhibitors was further evaluated in the inhibition of necroptosis in U937 cells. U937 cell line was purchased from Huatuo Biotechnology and stored in liquid nitrogen. U937 cells were revived before the experiment and cultured in RPMI-1640 medium (supplemented with 10% fetal bovine serum, 100 U/mL penicillin and 100 μg/mL streptomycin) at 37° C., 5% CO2. The activity was further evaluated by the cellular ATP level detected by the Promega CellTiter-Glo 2.0 Assay cell viability assay kit (Catalog No.: G9242).
The experimental method was briefly described as below. U937 cells in the logarithmic growth phase were collected by centrifugation. Cells were diluted at the density of 5×10^5 cells/mL with RPMI 1640 medium (supplemented with 10% fetal bovine serum, 100 U/mL penicillin and 100 μg/mL streptomycin). The cell suspension was added to a white sterile 384-well cell culture plate at 15 μL/well. The test compound was dissolved in DMSO to prepare a 10 mM stock solution and diluted to 10 μM with culture medium. At the same time, a control with the same DMSO volume was set up. Two replicates were added for each concentration. The diluted compound was added to the 384-well cell culture plate containing cells at 2.5 µL/well and incubated at 37° C., 5% CO2 for 15 minutes. Z-VAD-FMK (Biyuntian, catalog number: C1202-5 mg) was dissolved in DMSO to prepare a 20 mM stock solution. SM-164 (Biyuntian, catalog number: SC0114-10 mM) was dissolved in DMSO to prepare a 10 mM stock solution and diluted to 0.1 mM. hTNF-α (Sino Biological Inc., catalog number: 10602-HNAE) was dissolved in sterile water to 10 μg/mL. RPMI 1640 medium (supplemented with 10% fetal bovine serum, 100 U/mL penicillin and 100 μg/mL streptomycin) was used to prepare the TSZ mixture, containing 133.3 μM Z-VAD-FMK, 33.3 ng/ml hTNF-α and 0.3 μM SM-164. After 15 minutes' coculture of compounds and cells, 7.5 μL of TSZ mixture was added to each well, mixed evenly, and cultured at 37° C., 5% CO2 for 20 hours. After 20 hours, the culture plate was removed and placed at room temperature for 30 minutes. 10 μL of CellTiter-Glo reagent pre-equilibrated at room temperature was added to each well and incubated for 10 minutes from light. The chemiluminescence was read by a microplate reader. The inhibition rate was calculated as Inh %=(1−(no TSZ-TSZ & compound)/(no TSZ-TSZ))×100.
(In general: Cellular ATP, detected with luciferase, serves as a proxy for viable cell number.)

In assay [2] the test system is U937 cells. Description: EC50 of necroptosis inhibition in U937 cells (TSZ-induced, CellTiter-Glo). Format: cell-based. The settings on record: Homo sapiens, U-937; TSZ (hTNF-α, SM-164, Z-VAD-FMK) 20 hours; 10 concentration points; read-out: EC50 intervals of necroptosis inhibition in U937 cells. The protocol:
as §1
The experimental method was briefly described as below. U937 cells in the logarithmic growth phase were collected by centrifugation. Cells were diluted to the cell density of 5×10^5 cells/mL with RPMI 1640 medium (supplemented with 10% fetal bovine serum, 100 U/mL penicillin and 100 μg/mL streptomycin). Cell suspension was added to a white sterile 384-well cell culture plate at 15 μL/well. The test compound was dissolved in DMSO to prepare a 10 mM stock solution. The compound was serially diluted with culture medium at a ratio of 1:3, for a total of 10 concentration points. A control with the same DMSO volume was set, with two replicates for each concentration. The diluted compound was added to the 384-well cell culture plate containing cells at 2.5 μL/well and incubated at 37° C., 5% CO2 for 15 minutes. Z-VAD-FMK (Biyuntian, catalog number: C1202-5 mg) was dissolved in DMSO to prepare a 20 mM stock solution. SM-164 (Biyuntian, catalog number: SC0114-10 mM) was dissolved in DMSO to prepare a 10 mM stock solution and diluted to 0.1 mM. hTNF-α (Sino Biological Inc., catalog number: 10602-HNAE) was dissolved in sterile water to 10 μg/mL. RPMI 1640 medium (supplemented with 10% fetal bovine serum, 100 U/mL penicillin and 100 μg/mL streptomycin) was used to prepare the TSZ mixture, containing 133.3 μM Z-VAD-FMK, 33.3 ng/ml hTNF-α and 0.3 μM SM-164. After 15 minutes' coculture of compounds and cells, 7.5 μL of TSZ mixture was added to each well, mixed evenly, and cultured at 37° C., 5% CO2 for 20 hours. After 20 hours, the culture plate was removed and placed at room temperature for 30 minutes. Then, 10 μL of CellTiter-Glo reagent pre-equilibrated at room temperature was added to each well and incubated. After 10 minutes' incubation at room temperature in the dark, the chemiluminescence were measured using a microplate reader. The inhibition rate was calculated as Inh %=(1−(no TSZ-TSZ & compound)/(no TSZ-TSZ))×100. The EC50 was obtained by fitting the nonlinear regression curve log [inhibitor] vs. response−variable slope (four parameters) in GraphPad Prism.

Broadly, the inhibition is the relative decrease from the control value, in per cent. One may read the EC50 as the concentration that produces a half-maximal response. Regarding `C[C@@H](NC(=O)C(=O)N[C@H]1COc2ccc(C#CCN3CCN(CCOCCOCCOCCC(=O)Nc4cccc5c4CN(C4CCC(=O)NC4=O)C5=O)CC3)cc2N(C)C1=O)c1ccccc1` (mixture of isomers) [Example 164, N^1-((3S)-7-(3-(4-(2-(2-(2-(3-((2-(2,6-dioxopiperidin-3-yl)-1-oxoisoindolin-4-yl)amino)-3-oxopropoxy)ethoxy)ethoxy)ethyl)piperazin-1-yl)prop-1-yn-1-yl)-5-methyl-4-oxo-2,3,4,5-tetrahydrobenzo[b][1,4]oxazepin-3-yl)-N^2-((R)-1-phenylethyl)oxalamide], the inhibition at 1 µM at RIPK1 kinase is no less than 75%. The “Inhibition rate range of compounds (1 μM) on U937 cell necroptosis” value (from here on “Inhibition rate range of compounds”) with U937 cells [1] is on record as “A (A: ≥90%)”. Moreover, the EC50 in the assay on U937 cells [2] is 0.1 to 0.5 µM.
Consider `CN1C(=O)[C@@H](NC(=O)C(=O)NCCc2ccccc2)COc2ccc(Br)cc21` [Example 1, (S)—N^1-(7-bromo-5-methyl-4-oxo-2,3,4,5-tetrahydrobenzo[b][1,4]oxazepin-3-yl)-N^2-phenethyloxalamide], for which the inhibition at 1 µM on RIPK1 kinase lay within 50 to 74%. For the same compound, the “Inhibition rate range of compounds” value with U937 cells [1] was “A (A: ≥90%)”. For the same compound, the EC50 in the assay on U937 cells [2] fell in the range of 0.1 to 0.5 µM.
The like results for `CN1C(=O)[C@@H](NC(=O)C(=O)NCCc2ccccc2)COc2ccc(C#CC3CC3)cc21` [Example 2, (S)—N^1-(7-(cyclopropylethynyl)-5-methyl-4-oxo-2,3,4,5-tetrahydrobenzo[b][1,4]oxazepin-3-yl)-N^2-phenethyloxalamide] were, in that order, no less than 75%, “A (A: ≥90%)” and less than 0.1 µM.
Take `CN1C(=O)[C@@H](NC(=O)C(=O)NCCc2ccccc2)COc2cc(Br)ccc21` [Example 3, (S)—N^1-(8-bromo-5-methyl-4-oxo-2,3,4,5-tetrahydrobenzo[b][1,4]oxazepin-3-yl)-N^2-phenethyloxalamide]: on RIPK1 kinase, the inhibition at 1 µM is no less than 75%. The “Inhibition rate range of compounds” value with U937 cells [1] is “A (A: ≥90%)”. For the same compound, in the assay with U937 cells [2], the EC50 lay in the range of 0.5 to 2 µM.
For `CN1C(=O)[C@@H](NC(=O)C(=O)NCCc2ccccc2)COc2cc(O)ccc21` [Example 5, (S)—N^1-(8-hydroxy-5-methyl-4-oxo-2,3,4,5-tetrahydrobenzo[b][1,4]oxazepin-3-yl)-N^2-phenethyloxalamide], in that order: no less than 75%, “A (A: ≥90%)” and 0.1 to 0.5 µM.
Take `CN1C(=O)[C@@H](NC(=O)C(=O)NCCc2ccccc2)COc2ccc(O)cc21` [Example 6, (S)—N^1-(7-hydroxy-5-methyl-4-oxo-2,3,4,5-tetrahydrobenzo[b][1,4]oxazepin-3-yl)-N^2-phenethyloxalamide]: on RIPK1 kinase, the inhibition at 1 µM lay within 50 to 74%. The “Inhibition rate range of compounds” value in the assay with U937 cells [1] is given as “A (A: ≥90%)”. In the assay on U937 cells [2], the EC50 was in the range of 0.1 to 0.5 µM.
`CN1C(=O)[C@@H](NC(=O)C(=O)NCCc2ccccc2F)COc2ccccc21` [Example 99, (S)—N^1-(2-fluorophenethyl)-N^2-(5-methyl-4-oxo-2,3,4,5-tetrahydrobenzo[b][1,4]oxazepin-3-yl)oxalamide]: the inhibition at 1 µM on RIPK1 kinase fell in the range of 50 to 74%. Further, in the assay on U937 cells [1], the “Inhibition rate range of compounds” value was “B (B: 50-89%)”.
`CN1C(=O)[C@@H](NC(=O)C(=O)NCCc2cccc(Cl)c2)COc2ccccc21` [Example 101, (S)—N^1-(3-chlorophenethyl)-N^2-(5-methyl-4-oxo-2,3,4,5-tetrahydrobenzo[b][1,4]oxazepin-3-yl)oxalamide]: the inhibition at 1 µM on RIPK1 kinase lay within 25 to 49%.
Turning to `CN1C(=O)[C@@H](NC(=O)C(=O)NCCOc2ccccc2)COc2ccccc21` [Example 103, (S)—N^1-(5-methyl-4-oxo-2,3,4,5-tetrahydrobenzo[b][1,4]oxazepin-3-yl)-N^2-(2-phenoxyethyl)oxalamide], on RIPK1 kinase, the inhibition at 1 µM lay within 25 to 49%. Also, the EC50 in the assay on U937 cells [2] lay in the range of 0.5 to 2 µM.
